Tests used:
U87 spheroids [1] = experiment: WST-1 metabolic activity of U87 spheroids under drug or DMSO treatment; type: cell-based
Protocol: (§1) The spheroids were subjected to drug testing at varying concentrations, with DMSO serving as a solvent control. This experimental approach aimed to dissect the impact of both DMSO and drug compounds on the metabolic activity and viability of U87 spheroids.
(§2) Control tests were first conducted with DMSO at concentrations of 1%, 2.5%, 5%, 10%, and 20% (v/v) to assess its cytotoxic effects independently of drug action. The metabolic activity of the spheroids was monitored at 0, 6, 12, 24, and 48 hours, followed by a live/dead assay at 48 hours to assess cell viability.
(§3) Spheroid metabolic activity was measured at 6, 12, 24, and 48 hours using the WST-1 assay, and viability was assessed at 48 hours via the live/dead assay.

in vitro = settings: human
Protocol: as §1, §2, §3

U87 spheroids [2] = experiment: live/dead viability assay of U87 spheroids at 48 hours
Protocol: as §1, §2, §3

With `N.N.[Cl][Pt][Cl]` [Cisplatin] the “response at higher doses” value (U87 spheroids [1]; cryopreserved spheroids, 10 μM and above) was “delayed response”, the metabolic activity (U87 spheroids [1]; cryopreserved spheroids, doses as low as 0.1 μM) was “metabolic activity decreasing” and the metabolic activity (U87 spheroids [1]; normally grown spheroids, doses ≥10 μM) was “significantly reduced metabolic activity”.
For `C[S+](C)[O-]` [DMSO, dimethyl sulfoxide], the metabolic activity (U87 spheroids [1]; cryopreserved spheroids, 10% and 20% DMSO) was “declining sharply”, the metabolic activity (U87 spheroids [1]; normally grown spheroids, 1% DMSO (v/v), over 48 hours) was “linear increase in metabolic activity” and the metabolic activity (U87 spheroids [1]; normally grown spheroids, higher concentrations (5%, 10%, 20% DMSO)) was “temporary reductions in metabolic activity at the 6-hour mark, followed by partial recovery”. For the same molecule, the viability at 48 h, 1 % (v/v) (in vitro) was greater than 99%, the viability at 48 h, 5 % (v/v) (in vitro) was greater than 99% and the viability at 48 h, 10 % (v/v) (in vitro) was less than 50%. The viability at 48 h, 20 % (v/v) (in vitro) was 5% and the cell viability (U87 spheroids [2]; 10% and 20% DMSO, particularly in cryopreserved samples) was “viability decreased”.
With `Cn1nnc2c(C(N)=O)ncn2c1=O` [TMZ] the “metabolic activity and viability compared to normally grown spheroids” value (U87 spheroids [1]; cryopreserved spheroids, comparable doses) was “slightly higher metabolic activity and viability”, the response timing (U87 spheroids [1]; cryopreserved spheroids, more substantial reductions at 400 μM and 800 μM) was “slightly delayed responses” and the metabolic activity (U87 spheroids [1]; doses ≥100 μM, both normal and cryopreserved spheroids) was “metabolic activity was suppressed”. The viability (U87 spheroids [2]; 400 μM) was “below 30%” and the viability (U87 spheroids [2]; 800 μM) was “below 30%”.
